Results reported in ChEMBL document CHEMBL1201862, “PubChem BioAssay data set” (2004).
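The compound was tested at five concentrations on cells cultured in 96-well plates, with a 48-hour exposure period. GI50 is the concentration that inhibits growth by half.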 Activity calls are given as the source filed them. No stated cut-off is given here; in the data, active = GI50 up to about 1.1 µM and inactive = higher.

Tests used:
Assay in all cases: NCI tumour cell line growth inhibition, 48 h
TK-10 = tested on: TK-10
COLO 205 = tested on: COLO 205
OVCAR-3 = tested on: OVCAR-3
PC-3 = tested on: PC-3
A549 = tested on: A549
SNB-75 = tested on: SNB-75
UACC-257 = tested on: UACC-257
786-0 = tested on: 786-0
EKVX = tested on: EKVX
UO-31 = tested on: UO-31
SN12C = tested on: SN12C
DU-145 = tested on: DU-145
SF-295 = tested on: SF-295
SK-OV-3 = tested on: SK-OV-3
T47D = tested on: T47D
NCI-H460 = tested on: NCI-H460
Malme-3M = tested on: Malme-3M
HCT-116 = tested on: HCT-116
SW-620 = tested on: SW-620
CAKI-1 = tested on: CAKI-1
BT-549 = tested on: BT-549
OVCAR-4 = tested on: OVCAR-4
SK-MEL-5 = tested on: SK-MEL-5
HCT-15 = tested on: HCT-15
SNB-19 = tested on: SNB-19
MDA-N = tested on: MDA-N
UACC-62 = tested on: UACC-62
MDA-MB-435 = tested on: MDA-MB-435
MDA-MB-231 = tested on: MDA-MB-231
NCI-H23 = tested on: NCI-H23
NCI-H522 = tested on: NCI-H522
SF-539 = tested on: SF-539
OVCAR-5 = tested on: OVCAR-5
A498 = tested on: A498
MCF7 = tested on: MCF7
RXF 393 = tested on: RXF 393
SK-MEL-2 = tested on: SK-MEL-2
IGROV-1 = tested on: IGROV-1
KM12 = tested on: KM12
OVCAR-8 = tested on: OVCAR-8
HT-29 = tested on: HT-29
SF-268 = tested on: SF-268
HOP-62 = tested on: HOP-62
ACHN = tested on: ACHN
RPMI-8226 = tested on: RPMI-8226
Hs-578T = tested on: Hs-578T
NCI/ADR-RES = tested on: NCI/ADR-RES
M14 = tested on: M14
NCI-H226 = tested on: NCI-H226
SK-MEL-28 = tested on: SK-MEL-28
U-251 = tested on: U-251
LOX IMVI = tested on: LOX IMVI
MOLT-4 = tested on: MOLT-4
HCC 2998 = tested on: HCC 2998
K562 = tested on: K562
HOP-92 = tested on: HOP-92

In the case of `Cc1ccc(S(=O)(=O)Nc2ccccc2C(=O)c2ccc(C)c(C)c2)cc1`, the GI50 (TK-10) is reported as > 100 µM (inactive), the GI50 (COLO 205) is reported as > 100 µM (inactive) and the GI50 (OVCAR-3) is reported as 83.9 µM (inactive). The GI50 (PC-3) was > 100 µM (inactive), the GI50 (A549) was > 100 µM (inactive) and the GI50 (SNB-75) was > 100 µM (inactive). The GI50 (UACC-257) was 53.1 µM (inactive), the GI50 (786-0) was > 100 µM (inactive) and the GI50 (EKVX) was > 100 µM (inactive). The GI50 (UO-31) was > 100 µM (inactive), the GI50 (SN12C) was > 100 µM (inactive) and the GI50 (DU-145) was > 100 µM (inactive). For the same molecule, the GI50 (SF-295) was 75 µM (inactive), the GI50 (SK-OV-3) was > 100 µM (inactive) and the GI50 (T47D) was 71.1 µM (inactive). The GI50 (NCI-H460) was 80.2 µM (inactive), the GI50 (Malme-3M) was 59 µM (inactive) and the GI50 (HCT-116) was > 100 µM (inactive). For the same molecule, the GI50 (SW-620) was > 100 µM (inactive), the GI50 (CAKI-1) was > 100 µM (inactive) and the GI50 (BT-549) was > 100 µM (inactive). For the same molecule, the GI50 (OVCAR-4) was > 100 µM (inactive), the GI50 (SK-MEL-5) was 35 µM (inactive) and the GI50 (HCT-15) was greater than 100 µM. For the same molecule, the GI50 (SNB-19) was > 100 µM (inactive), the GI50 (MDA-N) was 74.3 µM (inactive) and the GI50 (UACC-62) was 88.5 µM (inactive). The GI50 (MDA-MB-435) was 41.9 µM (inactive), the GI50 (MDA-MB-231) was > 100 µM (inactive) and the GI50 (NCI-H23) was > 100 µM (inactive). For the same molecule, the GI50 (NCI-H522) was 39.9 µM (inactive), the GI50 (SF-539) was > 100 µM (inactive) and the GI50 (OVCAR-5) was > 100 µM (inactive). For the same molecule, the GI50 (A498) was 94.6 µM (inactive), the GI50 (MCF7) was 52.7 µM (inactive) and the GI50 (RXF 393) was > 100 µM (inactive). The GI50 (SK-MEL-2) was > 100 µM (inactive), the GI50 (IGROV-1) was 34.6 µM (inactive) and the GI50 (KM12) was 63.4 µM (inactive). For the same molecule, the GI50 (OVCAR-8) was > 100 µM (inactive), the GI50 (HT-29) was > 100 µM (inactive) and the GI50 (SF-268) was > 100 µM (inactive). The GI50 (HOP-62) was > 100 µM (inactive), the GI50 (ACHN) was 55.2 µM (inactive) and the GI50 (RPMI-8226) was 42.9 µM (inactive). The GI50 (Hs-578T) was 60.5 µM (inactive), the GI50 (NCI/ADR-RES) was > 100 µM (inactive) and the GI50 (M14) was > 100 µM (inactive). For the same molecule, the GI50 (NCI-H226) was > 100 µM (inactive), the GI50 (SK-MEL-28) was > 100 µM (inactive) and the GI50 (U-251) was 85.1 µM (inactive). For the same molecule, the GI50 (LOX IMVI) was > 100 µM (inactive).

In the case of `Cn1ncc2c(NCCc3ccccc3)nc(Cl)nc21`, the GI50 (TK-10) is reported as 20.9 µM (inactive), the GI50 (COLO 205) is reported as 17.3 µM (inactive) and the GI50 (OVCAR-3) is reported as 33.3 µM (inactive). The GI50 (PC-3) was 17.9 µM (inactive), the GI50 (A549) was 20.4 µM (inactive) and the GI50 (SNB-75) was 21.1 µM (inactive). The GI50 (MOLT-4) was 14.7 µM (inactive), the GI50 (UACC-257) was 2.48 µM (inactive) and the GI50 (786-0) was 23.4 µM (inactive). The GI50 (EKVX) was 1.75 µM (inactive), the GI50 (UO-31) was 19 µM (inactive) and the GI50 (SN12C) was 44.6 µM (inactive). For the same molecule, the GI50 (DU-145) was 44.9 µM (inactive), the GI50 (SF-295) was 16.4 µM (inactive) and the GI50 (SK-OV-3) was 19.5 µM (inactive). The GI50 (T47D) was 11.4 µM (inactive), the GI50 (NCI-H460) was 15.6 µM (inactive) and the GI50 (Malme-3M) was 58.9 µM (inactive). The GI50 (HCT-116) was 27.8 µM (inactive), the GI50 (SW-620) was 23.3 µM (inactive) and the GI50 (CAKI-1) was 28.1 µM (inactive). For the same molecule, the GI50 (HCC 2998) was 18.8 µM (inactive), the GI50 (BT-549) was 23.5 µM (inactive) and the GI50 (OVCAR-4) was 18.8 µM (inactive). The GI50 (SK-MEL-5) was 17.6 µM (inactive), the GI50 (HCT-15) was 25.4 µM and the GI50 (SNB-19) was 44.9 µM (inactive). For the same molecule, the GI50 (MDA-N) was 23.2 µM (inactive), the GI50 (UACC-62) was 5.97 µM (inactive) and the GI50 (MDA-MB-435) was 20.6 µM (inactive). The GI50 (MDA-MB-231) was 3.97 µM (inactive), the GI50 (NCI-H23) was 24.8 µM (inactive) and the GI50 (NCI-H522) was 21.9 µM (inactive). For the same molecule, the GI50 (K562) was 17.6 µM (inactive), the GI50 (OVCAR-5) was 14 µM (inactive) and the GI50 (A498) was 17.7 µM (inactive). The GI50 (MCF7) was 30 µM (inactive), the GI50 (RXF 393) was 17.1 µM (inactive) and the GI50 (SK-MEL-2) was 10.7 µM (inactive). For the same molecule, the GI50 (IGROV-1) was 33.1 µM (inactive), the GI50 (KM12) was 26.2 µM (inactive) and the GI50 (HOP-92) was 15.3 µM (inactive). The GI50 (OVCAR-8) was 27.2 µM (inactive), the GI50 (HT-29) was 14.7 µM (inactive) and the GI50 (SF-268) was 38.2 µM (inactive). For the same molecule, the GI50 (HOP-62) was 24.4 µM (inactive), the GI50 (ACHN) was 28.6 µM (inactive) and the GI50 (RPMI-8226) was 13.7 µM (inactive). For the same molecule, the GI50 (Hs-578T) was 8.93 µM (inactive), the GI50 (NCI/ADR-RES) was 16.4 µM (inactive) and the GI50 (M14) was 15 µM (inactive). The GI50 (NCI-H226) was 21.5 µM (inactive), the GI50 (SK-MEL-28) was 28.7 µM (inactive) and the GI50 (U-251) was 30.2 µM (inactive). The GI50 (LOX IMVI) was 16.7 µM (inactive).

In the case of `NS(=O)(=O)c1ccc(NCc2nc3ccccc3[nH]2)cc1`, the GI50 (TK-10) is reported as > 100 µM (inactive), the GI50 (COLO 205) is reported as > 100 µM (inactive) and the GI50 (OVCAR-3) is reported as > 100 µM (inactive). The GI50 (PC-3) was > 100 µM (inactive), the GI50 (A549) was > 100 µM (inactive) and the GI50 (SNB-75) was > 100 µM (inactive). For the same molecule, the GI50 (UACC-257) was > 100 µM (inactive), the GI50 (786-0) was > 100 µM (inactive) and the GI50 (EKVX) was > 100 µM (inactive). The GI50 (UO-31) was > 100 µM (inactive), the GI50 (SN12C) was > 100 µM (inactive) and the GI50 (DU-145) was > 100 µM (inactive). For the same molecule, the GI50 (SF-295) was > 100 µM (inactive), the GI50 (SK-OV-3) was > 100 µM (inactive) and the GI50 (T47D) was > 100 µM (inactive). For the same molecule, the GI50 (NCI-H460) was > 100 µM (inactive), the GI50 (Malme-3M) was > 100 µM (inactive) and the GI50 (HCT-116) was > 100 µM (inactive). The GI50 (CAKI-1) was > 100 µM (inactive), the GI50 (BT-549) was > 100 µM (inactive) and the GI50 (OVCAR-4) was > 100 µM (inactive). The GI50 (SK-MEL-5) was > 100 µM (inactive), the GI50 (HCT-15) was greater than 100 µM and the GI50 (SNB-19) was > 100 µM (inactive). For the same molecule, the GI50 (MDA-N) was > 100 µM (inactive), the GI50 (UACC-62) was > 100 µM (inactive) and the GI50 (MDA-MB-435) was > 100 µM (inactive). For the same molecule, the GI50 (MDA-MB-231) was > 100 µM (inactive), the GI50 (NCI-H23) was > 100 µM (inactive) and the GI50 (NCI-H522) was > 100 µM (inactive). For the same molecule, the GI50 (SF-539) was > 100 µM (inactive), the GI50 (OVCAR-5) was > 100 µM (inactive) and the GI50 (A498) was > 100 µM (inactive). The GI50 (MCF7) was > 100 µM (inactive), the GI50 (RXF 393) was > 100 µM (inactive) and the GI50 (SK-MEL-2) was > 100 µM (inactive). The GI50 (IGROV-1) was > 100 µM (inactive), the GI50 (KM12) was > 100 µM (inactive) and the GI50 (HOP-92) was > 100 µM (inactive). For the same molecule, the GI50 (OVCAR-8) was > 100 µM (inactive), the GI50 (HT-29) was > 100 µM (inactive) and the GI50 (SF-268) was > 100 µM (inactive). For the same molecule, the GI50 (HOP-62) was > 100 µM (inactive), the GI50 (ACHN) was > 100 µM (inactive) and the GI50 (Hs-578T) was > 100 µM (inactive). For the same molecule, the GI50 (NCI/ADR-RES) was > 100 µM (inactive), the GI50 (M14) was > 100 µM (inactive) and the GI50 (NCI-H226) was > 100 µM (inactive). The GI50 (U-251) was > 100 µM (inactive) and the GI50 (LOX IMVI) was > 100 µM (inactive).
